Test results published in ChEMBL document CHEMBL1201862, “PubChem BioAssay data set” (2004).
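48-hour exposure; five concentrations; linearly interpolated endpoints. Abbreviation: GI50, concentration required for 50% inhibition of growth.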 Active and inactive are the calls of the source. Cut-off read from the data, not from the text of the source: active = GI50 up to about 1.1 µM and inactive = higher.

Columns and labels:
Experiment in all cases: inhibition of tumour cell growth, NCI panel, 48 h
[1] = tested on: SN12C
[2] = tested on: A498
[3] = tested on: PC-3
[4] = tested on: COLO 205
[5] = tested on: NCI-H522
[6] = tested on: OVCAR-3
[7] = tested on: RXF 393
[8] = tested on: MCF7
[9] = tested on: U-251
[10] = tested on: HCC 2998
[11] = tested on: SF-268
[12] = tested on: 786-0
[13] = tested on: NCI/ADR-RES
[14] = tested on: SW-620
[15] = tested on: SNB-19
[16] = tested on: SF-295
[17] = tested on: NCI-H460
[18] = tested on: EKVX
[19] = tested on: MDA-MB-231
[20] = tested on: MOLT-4

Measured: GI50

Nc1ccccc1.O=P(O)(OP(=O)(O)c1ccccc1)c1ccccc1
inactive: [1] > 100 µM | [2] > 100 µM | [3] > 100 µM | [4] > 100 µM | [5] > 100 µM | [6] > 100 µM | [7] > 100 µM | [8] > 100 µM | [9] > 100 µM | [10] > 100 µM | [11] > 100 µM | [12] > 100 µM | [13] > 100 µM | [14] > 100 µM | [15] > 100 µM | [16] 96.4 µM | [17] > 100 µM | [18] > 100 µM | [19] > 100 µM

CCOC(=O)NC(C(F)(F)F)(C(F)(F)F)P(=O)(OCC)OCC
inactive: [1] 32.8 µM | [2] 46.3 µM | [3] 22.8 µM | [4] 38.6 µM | [5] 17.4 µM | [6] 45.2 µM | [7] 11.9 µM | [8] 75.2 µM | [9] 23.3 µM | [10] 75.2 µM | [11] 42.6 µM | [12] 45.2 µM | [13] 36.7 µM | [14] 17.9 µM | [15] 36.1 µM | [16] 51.2 µM | [17] 31.7 µM | [19] > 100 µM | [20] 4.11 µM

CN(C)c1ccc(C2CC(c3ccc4ccccc4c3O)=NN2c2ccc([N+](=O)[O-])cc2[N+](=O)[O-])cc1 (stereo unspecified)
inactive: [1] 50.7 µM | [2] 68.4 µM | [3] 23.6 µM | [4] 38.7 µM | [5] 21 µM | [6] 22 µM | [7] 41.2 µM | [8] 23.8 µM | [9] 41.9 µM | [10] 71 µM | [11] 98.4 µM | [12] > 100 µM | [13] 43.5 µM | [14] 36.3 µM | [16] 40.1 µM | [17] 32.3 µM | [19] 22 µM | [20] 22.8 µM

C=C(C)C1CC/C(C)=C/CCC2(C)OC2CC/C(CO)=C\C1O (stereo unspecified)
inactive: [1] > 100 µM | [2] > 100 µM | [3] 64.3 µM | [4] 47.6 µM | [6] > 100 µM | [7] > 100 µM | [8] 91.4 µM | [9] 98.4 µM | [10] > 100 µM | [11] 66.7 µM | [12] > 100 µM | [13] > 100 µM | [14] > 100 µM | [15] > 100 µM | [16] 40.9 µM | [17] 42.7 µM | [18] 91.4 µM | [19] > 100 µM | [20] 43 µM

C=CCSC1=N/C(=C\c2ccc(C)cc2)C(=O)N1CC=C
inactive: [1] 12.7 µM | [2] 13.6 µM | [3] 22.2 µM | [4] 20.6 µM | [5] 26.7 µM | [6] 57.5 µM | [7] 15.3 µM | [8] 20.9 µM | [9] 22.7 µM | [10] 23.8 µM | [11] 36.6 µM | [12] 18.3 µM | [13] 40.5 µM | [14] 32.4 µM | [15] 32.4 µM | [16] 43.5 µM | [17] 34.3 µM | [18] 10.1 µM | [19] 90.4 µM

CN1Cc2ccccc2/C=C\c2ccccc21
inactive: [1] 83.4 µM | [2] 69.5 µM | [3] 64 µM | [4] 44.5 µM | [5] 37.5 µM | [6] 47.3 µM | [7] 30.1 µM | [8] 24.7 µM | [9] > 100 µM | [10] 47.9 µM | [11] 39.4 µM | [12] 95.9 µM | [13] > 100 µM | [14] > 100 µM | [15] > 100 µM | [16] 62.7 µM | [17] 42.7 µM | [18] 30.8 µM | [19] 96.2 µM

O=C1Nc2nnc(S)n2NC12c1ccccc1-c1ccccc12
inactive: [1] > 100 µM | [2] > 100 µM | [3] > 100 µM | [4] > 100 µM | [5] > 100 µM | [6] > 100 µM | [7] > 100 µM | [8] 33.2 µM | [9] > 100 µM | [10] > 100 µM | [11] 65.2 µM | [12] > 100 µM | [13] > 100 µM | [14] > 100 µM | [15] > 100 µM | [16] > 100 µM | [17] 39.4 µM | [18] > 100 µM | [19] > 100 µM

C[N+]1(CCC[N+]2(C)CC3C4C=CC(CC4)C3C2)CCOCC1 (stereo unspecified)
inactive: [1] > 100 µM | [2] > 100 µM | [3] > 100 µM | [4] > 100 µM | [5] > 100 µM | [6] > 100 µM | [7] > 100 µM | [8] > 100 µM | [9] > 100 µM | [10] 86.7 µM | [11] > 100 µM | [12] > 100 µM | [13] > 100 µM | [14] > 100 µM | [15] > 100 µM | [16] > 100 µM | [18] > 100 µM | [19] > 100 µM | [20] > 100 µM
